Measurements: US10105365B2, “Solid antiviral dosage forms” (AbbVie Inc., priority 2014, dated 2018)
Where two headings read alike, the source gives them in different places.

How the values were obtained:
[1] = Human pharmacokinetic study, Example 5 Arm I (single dose, replicated crossover); format: in vivo; settings: single dose, non-fasting
Method: (§1) A Phase 1, non-fasting, open-label, two-arm, four-period, randomized, crossover study was conducted to compare and characterize the pharmacokinetics of (i) Triple Tablet when co-administered with Single Tablet, and (ii) Formulation C5-12 as discussed below. Part 1 was a single dose, two-treatment, randomized, four period, two sequence replicated crossover study with 88 subjects. Doses in the four periods were separated by at least 10 days. Part 2 was a multiple-dose, two-treatment, two period, randomized crossover study with 66 subjects. Dosing in each period was 14 days and doses in the two periods were separated by at least 10 days.
(§2) Adult male and female subjects in general good health were selected to participate in the study according to the selection criteria. Subjects meeting the selection criteria were randomly assigned to one of the sequences of Regimens A and B (four sequences for Arm I and two sequences for Arm II) as shown below in Table 5-A.
(§3) Study drug was administered as provided below in Table 5-B.
(§4) Each study regimen was taken orally with approximately 240 mL of water approximately 30 minutes after the start of standardized breakfast. Study regimens were administered orally in the morning on Study Day 1 of each period. Serial blood samples for pharmacokinetic analysis were collected 72 hours after dosing in each period.
Tables 5-C, 5-D, 5-E, and 5-F below report the Arm I pharmacokinetic data for Formulation C5-12 (separately reported for each of Compounds 1, 2, 3, and 4). Table 5-G presents the results of a relative bioavailability and 90% confidence interval analysis of the pharmacokinetic data for Formulation C5-12 relative to the reference regimen. The data presented in Tables 5-C through 5-G are preliminary data and are subject to database lock and final data verification by the statistician.

[2] = Human pharmacokinetic study, Example 4 Arm III (14-day multiple dose, steady state); format: in vivo
[3] = Human pharmacokinetic study, Example 4 Arm II (single dose, crossover); format: in vivo; settings: human, in vivo
Method: Formulation C5-12 and a second formulation were tested in Arm II of the study. Adult male and female subjects (N=30 for combined Arm I and Arm II studies) in general good health were selected to participate in the study according to the selection criteria. Subjects meeting the selection criteria were randomly assigned to one of the Regimen sequences as shown below in Table 4-A.
Study drug was administered as provided below in Table 4-B.
as §4, with “each period. For Regimen A the evening dose of the Single Tablet was taken orally with approximately 240 mL of water approximately 30 minutes after the start of the evening snack. Serial blood” for “each period. Serial blood”
The data presented in Tables 4-C through 4-G are preliminary data and are subject to database lock and final data verification.

[4] = Sink Conditions dissolution testing of Formulation C5-12; format: physicochemical; settings: N = 6
Method: The release profiles of Formulation C5-12 of Example 1 were evaluated in a Sink Conditions dissolution study. The study was conducted in 900 mL of dissolution medium using a standard USP dissolution Apparatus 2 (paddle) operating at 100 RPM at 37±0.5° C. The dissolution medium was a 0.05 M sodium phosphate buffer pH 6.8 with 15 mM cTAB as a surfactant.

[5] = Human pharmacokinetic study, Example 5 Arm II (multiple dose, crossover); format: in vivo; settings: in vivo
Method: as §1, §2, §3, §4

[6] = Solubility (general statement); format: physicochemical; settings: aqueous
[7] = Regimen B (reference regimen): two Triple Tablets + one Single Tablet morning, one Single Tablet evening, N = 171
[8] = Formulation C5-12, Day 14 versus Day 1
[9] = human, in vivo, oral, 3 Formulation C5-12 tablets daily, three Formulation C5-12 tablets daily for 14 days, non-fasting, Day 14, N = 14
[10] = three Formulation C5-12 tablets daily for 14 days, non-fasting, Day 1, N = 14

Q: Which half-life ([1]; both sexes, human, blood, oral, 3 film-coated Formulation C5-12 tablets, Regimen A (C5-12): three film-coated Formulation C5-12 tablets, N = 172) does the source give for `COC(=O)N[C@H](C(=O)N1CCC[C@H]1C(=O)Nc1ccc([C@@H]2CC[C@@H](c3ccc(NC(=O)[C@@H]4CCCN4C(=O)[C@@H](NC(=O)OC)C(C)C)cc3)N2c2ccc(C(C)(C)C)cc2)cc1)C(C)C` [Compound 2] here?
A: Its half-life is 37.9 h.

Q: What about the AUC(0-t) ([1]; both sexes, human, blood, oral, 3 film-coated Formulation C5-12 tablets, Regimen A (C5-12): three film-coated Formulation C5-12 tablets, N = 172, read-out: AUCt, geometric mean) of the same compound?
A: Its AUC(0-t) is 1660 ng·h/mL.

Q: And the AUC(0-inf) ([1]; both sexes, human, blood, oral, 3 film-coated Formulation C5-12 tablets, Regimen A (C5-12): three film-coated Formulation C5-12 tablets, N = 172, read-out: AUC∞, geometric mean)?
A: Its AUC(0-inf) is 1800 ng·h/mL.

Q: What about the Tmax ([1]; both sexes, human, blood, oral, 3 film-coated Formulation C5-12 tablets, Regimen A (C5-12): three film-coated Formulation C5-12 tablets, N = 172, read-out: Tmax, first value (geometric mean)) of the same compound?
A: The Tmax was 5 h.

Q: And the AUC(0-t) ([1]; both sexes, human, blood, oral, Regimen B (reference regimen): two Triple Tablets + one Single Tablet morning, one Single Tablet evening, N = 171, read-out: AUCt, geometric mean)?
A: The AUC(0-t) was 1630 ng·h/mL.

Q: What about the AUC(0-inf) ([1]; both sexes, human, blood, oral, Regimen B (reference regimen): two Triple Tablets + one Single Tablet morning, one Single Tablet evening, N = 171, read-out: AUC∞, geometric mean) of the same compound?
A: The AUC(0-inf) was 1760 ng·h/mL.

Q: And the Tmax ([1]; both sexes, human, blood, oral, Regimen B (reference regimen): two Triple Tablets + one Single Tablet morning, one Single Tablet evening, N = 171, read-out: Tmax, first value (geometric mean))?
A: The Tmax was 5 h.

Q: And the “Cmax, geometric mean” value ([1]; Regimen A (C5-12): three film-coated Formulation C5-12 tablets, N = 172)?
A: The value was 124 ng/mL.

Q: What about the “Cmax, geometric mean” value [1, 7] of the same compound?
A: Its value is 131 ng/mL.

Q: And the t1/2 [1, 7]?
A: Its t1/2 is 39.2 h.

Q: And the “AUC24, RATIO” value [2, 8]?
A: The value was 1.34.

Q: And the “C24, RATIO” value [2, 8]?
A: Its value is 1.72.

Q: What about the “Cmax, RATIO” value [2, 8] of the same compound?
A: Its value is 1.10.

Q: And the Tmax ([2]; human, in vivo, oral, 3 Formulation C5-12 tablets daily, three Formulation C5-12 tablets daily for 14 days, non-fasting, Day 1, N = 14)?
A: Its Tmax is 5.5 h.

Q: And the concentration at 24 h ([2]; human, in vivo, oral, 3 Formulation C5-12 tablets daily, three Formulation C5-12 tablets daily for 14 days, non-fasting, Day 1, N = 14, read-out: C24, geometric mean)?
A: Its concentration at 24 h is 23.4 ng/mL.

Q: What about the Tmax [2, 9] of the same compound?
A: The Tmax was 5.6 h.

Q: And the half-life [2, 9]?
A: Its half-life is 29.8 h.

Q: What about the AUC ([2]; human, in vivo, oral, 3 Formulation C5-12 tablets daily, three Formulation C5-12 tablets daily for 14 days, non-fasting, Day 14, N = 14, read-out: AUC24, geometric mean) of the same compound?
A: The AUC was 1720 ng·h/mL.

Q: And the concentration at 24 h ([2]; human, in vivo, oral, 3 Formulation C5-12 tablets daily, three Formulation C5-12 tablets daily for 14 days, non-fasting, Day 14, N = 14, read-out: C24, geometric mean)?
A: Its concentration at 24 h is 40.2 ng/mL.

Q: And the Cmax ([2]; human, in vivo, oral, 3 Formulation C5-12 tablets daily, three Formulation C5-12 tablets daily for 14 days, non-fasting, Day 14, N = 14, read-out: Cmax, geometric mean)?
A: The Cmax was 135 ng/mL.

Q: What about the “AUC24, geometric mean” value [2, 10] of the same compound?
A: The value was 1280 ng·h/mL.

Q: And the “Cmax, geometric mean” value [2, 10]?
A: Its value is 123 ng/mL.

Q: And the β ([2]; three Formulation C5-12 tablets daily for 14 days, non-fasting, Day 14, N = 14)?
A: Its β is 0.023 h⁻¹.

Q: What about the “AUCt, geometric mean” value ([3]; both) of the same compound?
A: The value was 1510 ng·h/mL.

Q: What about the “AUC∞, geometric mean” value ([3]; both) of the same compound?
A: The value was 1670 ng·h/mL.

Q: What about the “Cmax, geometric mean” value ([3]; both) of the same compound?
A: Its value is 117 ng/mL.

Q: And the Tmax ([3]; both)?
A: Its Tmax is 5.2 h.

Q: And the t1/2 ([3]; both)?
A: The t1/2 was 23.2 h.

Q: And the “C24, arithmetic mean, % CV” value ([3]; both, 24 h)?
A: Its value is “(19.4, 29) ng/mL”.

Q: And the “C24, geometric mean” value ([3]; both, 24 h)?
A: Its value is 18.7 ng/mL.

Q: And the “AUCt, arithmetic mean, % CV” value [3]?
A: The value was “(1560, 25) ng · h/mL”.

Q: And the “AUC∞, arithmetic mean, % CV” value [3]?
A: Its value is “(1740, 29) ng · h/mL”.

Q: And the “Cmax, arithmetic mean, % CV” value [3]?
A: Its value is “(122, 31) ng/mL”.

Q: And the “Relative bioavailability, AUCinf, point estimate” value [3]?
A: Its value is 1.022.

Q: And the “Relative bioavailability, Cmax, point estimate” value [3]?
A: Its value is 1.038.

Q: What about the “% Released” value ([4]; 1 hour, 900 mL 0.05 M sodium phosphate buffer pH 6.8, 15 mM cTAB, USP Apparatus 2, 100 RPM, 37 °C) of the same compound?
A: Its value is 55%.

Q: And the “% Released” value ([4]; 4 hours, pH 6.8 buffer, 15 mM cTAB)?
A: The value was 98%.

Q: And the “% Released” value ([4]; 6 hours, pH 6.8 buffer, 15 mM cTAB)?
A: The value was 99%.

Q: What about the “% Released” value ([4]; 8 hours, pH 6.8 buffer, 15 mM cTAB) of the same compound?
A: Its value is 103%.

Q: What about the “% Released” value ([4]; 12 hours, pH 6.8 buffer, 15 mM cTAB) of the same compound?
A: The value was 102%.

Q: And the “% Released” value ([4]; 16 hours, pH 6.8 buffer, 15 mM cTAB)?
A: Its value is 102%.

Q: And the “Exposures versus the reference regimen” value [5]?
A: The value was “bioequivalent”.

Q: What about the “Relative bioavailability, AUC24, point estimate” value [5] of the same compound?
A: The value was 1.098.

Q: And the “Relative bioavailability, AUCt, point estimate” value [5]?
A: Its value is 1.091.

Q: What about the “Relative bioavailability, Cmax, point estimate” value [5] of the same compound?
A: The value was 1.087.

Q: What about the Solubility [6] of the same compound?
A: The Solubility was “low solubility”.
